IC50 data for 16 compounds are collected here from patent US20230295152A1 (SENDA BIOSCIENCES, INC., priority 2019, published 2023).

T1 sequence (Q12809 whole entry): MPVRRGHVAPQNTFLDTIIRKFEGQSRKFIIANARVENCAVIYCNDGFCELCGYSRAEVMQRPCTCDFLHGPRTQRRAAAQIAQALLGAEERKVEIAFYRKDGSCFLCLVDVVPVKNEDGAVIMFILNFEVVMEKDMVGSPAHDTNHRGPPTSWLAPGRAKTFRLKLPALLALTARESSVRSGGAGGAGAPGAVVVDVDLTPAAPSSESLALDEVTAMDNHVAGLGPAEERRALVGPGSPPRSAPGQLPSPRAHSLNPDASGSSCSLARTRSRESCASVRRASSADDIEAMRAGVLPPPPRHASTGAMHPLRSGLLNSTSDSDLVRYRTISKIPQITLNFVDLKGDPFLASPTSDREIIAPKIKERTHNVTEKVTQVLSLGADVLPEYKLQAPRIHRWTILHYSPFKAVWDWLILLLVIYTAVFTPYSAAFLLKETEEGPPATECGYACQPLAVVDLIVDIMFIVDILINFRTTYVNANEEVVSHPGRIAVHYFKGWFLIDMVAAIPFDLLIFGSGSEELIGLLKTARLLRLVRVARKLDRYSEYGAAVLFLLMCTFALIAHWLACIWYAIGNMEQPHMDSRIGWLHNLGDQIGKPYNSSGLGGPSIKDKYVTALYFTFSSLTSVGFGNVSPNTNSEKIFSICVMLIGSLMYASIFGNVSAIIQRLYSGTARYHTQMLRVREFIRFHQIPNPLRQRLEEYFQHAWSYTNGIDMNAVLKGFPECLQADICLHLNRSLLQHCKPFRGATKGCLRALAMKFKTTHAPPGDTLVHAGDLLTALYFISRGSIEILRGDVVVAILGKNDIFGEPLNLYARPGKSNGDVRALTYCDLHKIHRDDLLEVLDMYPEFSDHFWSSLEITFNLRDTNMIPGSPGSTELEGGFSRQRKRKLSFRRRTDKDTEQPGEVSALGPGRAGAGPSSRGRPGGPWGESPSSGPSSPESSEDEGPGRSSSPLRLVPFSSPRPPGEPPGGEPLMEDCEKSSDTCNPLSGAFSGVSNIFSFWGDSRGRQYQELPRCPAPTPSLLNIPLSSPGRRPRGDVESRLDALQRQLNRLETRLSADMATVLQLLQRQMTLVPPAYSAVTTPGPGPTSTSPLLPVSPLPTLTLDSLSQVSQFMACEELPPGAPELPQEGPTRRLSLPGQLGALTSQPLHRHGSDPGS

The test concerns the target T1, hERG channels (Homo sapiens, UniProt Q12809).
T1 construct: host or cells: HEK 293
In words: hERG Inhibition Assay, patch clamp in hERG stably expressed HEK 293 cell line. It is filed as cell-based. Conditions: read-out: hERG channel: IC50. As for the experimental part: hERG stably expressed HEK 293 cell line (Cat #K1236) was purchased from Invitrogen. The cells are cultured in 85% DMEM, 10% dialyzed FBS, 0.1 mM NEAA, 25 mM HEPES, 100 U/mL Penicillin-Streptomycin and 5 μg/mL Blasticidin and 400 μg/mL Geneticin. Cells are split using TrypLE™ Express about three times a week and maintained between ˜40% to ˜80% confluence. Before the assay, the cells were onto the coverslips at 5×10^5 cells/per 6 cm cell culture dish and induced with doxycycline at 1 μg/mL for 48 hours.
External solution (in mM): 132 NaCl, 4 KCl, 3 CaCl2), 0.5 MgCl2, 11.1 glucose, and 10 HEPES (pH adjusted to 7.35 with NaOH). Internal solution (in mM): 140 KCl, 2 MgCl2, 10 EGTA, 10 HEPES and 5 MgATP (pH adjusted to 7.35 with KOH). Working solution preparation for test compound: test compounds were initially prepared in DMSO with final concentration of 10 mM as stock solution. Stock solution of each compound was serial-diluted by ratio of 1:3 with DMSO to prepare additional 3 intermediate solutions including 3.33, 1.11 and 0.37 mM.
Before performing the hERG assay, the working solutions were prepared by dilution of 10, 3.33, 1.11, and 0.37 mM intermediate solutions in 1000 folds using extracellular solution, while 30 μM working solution was prepared by 333.333-folds dilution of 10 mM DMSO stock. so that the final concentration of working solution was 30, 10, 3.33, 1.11 and 0.37 μM. The final DMSO concentration in working solutions was maintained in range of 0.1-0.3% (v/v).
Experimental procedure: the coverslip was removed from the cell culture dish and placed it on the microscope stage in bath chamber. A desirable cell was located using the ×10 objective. The tip of the electrode was located under the microscope using the ×10 objective by focusing above the plane of the cells. Once the tip was in focus, the electrode was advanced downwards towards the cell using the coarse controls of the manipulator, while simultaneously moving the objective to keep the tip in focus. When directly over the cell, the fine controls of the manipulator were used to approach the surface of the cell in small steps, by using the ×40 objective. Gentle suction was applied through the side-port of the electrode holder to form a gigaohm seal.
Cfast was used to remove the capacity current that is in coincidence with the voltage step. The whole cell configuration was obtained by applying repetitive, brief, strong suction until the membrane patch has ruptured. membrane potential was set to −60 mV at this point to ensure that hERG channels were not open. The spikes of capacity current was then cancelled using the Cslow on the amplifier.
Holding potential was set to −90 mV for 500 ms; current was recorder at 20 kHz and filtered at 10 kHz. Leaking current was tested at −80 mV for 500 ms.
The hERG current was elicited by depolarizing at +30 mV for 4.8 seconds and then the voltage was taken back to −50 mV for 5.2 seconds to remove the inactivation and observe the deactivating tail current. The maximum amount of tail current size was used to determine hERG current amplitude. Current was recorded for 120 seconds to assess current stability. Only stable cells with recording parameters above threshold were proceeded with further drug administrations. Vehicle control was applied to the cells to establish the baseline. […] For dose response testing, 5 doses of test compound was applied to the cells cumulatively from low to high concentrations. In order to ensure the good performance of cultured cells and operations, the positive control, Dofetilide, with 5 doses was also used to test the same batch of cells.
The following criteria were used to determine data acceptability: initial seal resistance>1 GΩ; leak currents<50% of the control peak tail currents at any time; the peak tail amplitude>300 pA; membrane resistance Rm>500 MΩ; access resistance (Ra)<15 MΩ; apparent run-down of peak current<2.5% per min. […]
On the technique in general: Block of hERG is tested as a sign of cardiac risk.
In the case of `O=c1c2cc(-c3ccc(C(F)(F)F)nc3)nc(-c3cccnc3)c2ncn1[C@@H]1COC[C@H]1O` [Compound 79], the IC50 – broadly, the point on the concentration scale where inhibition reaches its midpoint – is over 30 µM.
Regarding `CC(C)(O)Cn1cnc2c(-c3cccnc3)nc(-c3ccc(C(F)(F)F)cn3)cc2c1=O` [Compound 105], the concentration for half-maximal inhibition (IC50) was 11.8 µM.
With `CC(C)(O)Cn1cnc2c(-n3ccnc3)nc(-c3ccc(C(F)(F)F)cn3)cc2c1=O` [Compound 160, 3-(2-hydroxy-2-methylpropyl)-8-(1H-imidazol-1-yl)-6-(5-(trifluoromethyl)pyridin-2-yl)pyrido[3,4-d]pyrimidin-4(3H)-one], the IC50 stood at 11.5 µM.
Turning to `Cn1cc(-c2nc(-c3ccc(C(F)(F)F)cn3)cc3c(=O)n(CC(C)(C)O)cnc23)cn1` [Compound 103, 3-(2-hydroxy-2-methylpropyl)-8-(1-methyl-1H-pyrazol-4-yl)-6-(5-(trifluoromethyl)pyridin-2-yl)pyrido[3,4-d]pyrimidin-4(3H)-one], the half-maximal inhibitory concentration (IC50) is over 10 µM.
On to `O=c1c2cc(-c3ccc(Cl)cc3)nc(-c3cccnc3)c2ncn1[C@H]1COC[C@@H]1O` [Compound 125, 6-(4-chlorophenyl)-3-((3S,4R)-4-hydroxytetrahydrofuran-3-yl)-8-(pyridin-3-yl)pyrido[3,4-d]pyrimidin-4(3H)-one], for which the IC50 is 7.67 µM.
For `C[C@@H](CO)n1cnc2c(-c3cccnc3)nc(-c3ccc(C(F)(F)F)cn3)cc2c1=O` [Compound 46, (S)-3-(1-hydroxypropan-2-yl)-8-(pyridin-3-yl)-6-(5-(trifluoromethyl)pyridin-2-yl)pyrido[3,4-d]pyrimidin-4(3H)-one] the value was 8.63 µM; for `CC(C)(O)Cn1cnc2c(-c3cccnc3)nc(-c3ccc(Cl)cc3)cc2c1=O` [Compound 18], 5.28 µM.
For `CC(C)(O)Cn1cnc2c(-c3cccnc3)nc(-c3ccc(C(F)(F)F)cc3)cc2c1=O` [Compound 16], the IC50 amounted to 4.31 µM.
As to `C[C@@H](CO)n1cnc2c(-c3cccnc3)nc(-c3ccc(C(F)(F)F)nc3)cc2c1=O` [Compound 12], the IC50 was over 10 µM.
Consider `CC(C)(O)Cn1cnc2c(-c3cccnc3)nc(-c3ccc(C(F)(F)F)nc3)cc2c1=O` [Compound 9], for which the IC50 is 12.1 µM.
Consider `C[C@@H](CO)n1cnc2c(-c3cnn(C)c3)nc(-c3ccc(C(F)(F)F)nc3)cc2c1=O` [Compound 68], for which the IC50 is over 30 µM.
Regarding `Cn1cc(-c2nc(-c3ccc(C(F)(F)F)nc3)cc3c(=O)n(CC(C)(C)O)cnc23)cn1` [Compound 60], the IC50 was over 30 µM.
For the compound `C[C@@H](CO)n1cnc2c(-c3cnn(C)c3)nc(-c3ccc(Cl)cc3)cc2c1=O` [Compound 27], the IC50 is over 10 µM.
Regarding `C[C@@H](CO)n1cnc2c(-c3cccc(F)c3)nc(-c3ccc(Cl)cc3)cc2c1=O` [Compound 7], the IC50 is over 30 µM.
With `C[C@H](n1cnc2c(-c3cnn(C)c3)nc(-c3ccc(Cl)cc3)cc2c1=O)C(C)(C)O` [Compound 30], the IC50 was over 30 µM.
On to `C[C@@H](CO)n1cnc2c(-c3cccnc3)nc(-c3ccc(C4CC4)nc3)cc2c1=O` [Compound 74], for which the IC50 was found to be 4.84 µM.
